Source: patent US6004967A, “Psoriasis treatment with quinazoline compounds” (priority 1997, dated 1999)

How the values were obtained:
[1] = tested on: NIH 3T3 C7 cells engineered to express EGF-R (3T3-EGFR); assay: 3T3 cell growth assay, EGF-R C7 cells (3T3-EGFR); assay type: cell-based; conditions: Mus musculus, NIH3T3, 96 h, read-out: 3T3-EGFR IC50
Description: The efficacy of the above identified compounds in inhibiting or reducing EGF-R stimulated proliferation is measured by the 3T3 cell growth assay. The 3T3 growth assay was carried out as follows:
EGF-RC7 (NIH 3T3 C7 cells engineered to express EGF-R) and NIH 3T3C7 cells (as the control) were used for this assay. NIH3T3C7 cells were seeded at 2500 cells/well, […] in 10% CS+2 mM Glutamine/DMEM, in a 96 well plate; EGF-RC7 cells were seeded at 6000 cells/well, 100 μl/well in 2% FBS+2 mM Glutamine/DMEM, in a 96 well plate. Cells were incubated at 37° C., 5% CO2 overnight to allow for cell attachment to the plate.
A quinazoline compound was added to the cells at day 2. The compound was prepared in the appropriate growth medium (10% CS+2 mM glutamine in DMEM for NIH3T3C7 cells; 2% FBS+2 mM Glutamine in DMEM for EGF-RC7 cells) in a 96 well plate, and serially diluted. A total of 100 μl/well medium of the diluted compounds was added into the cells. The total volume of each well was 200 μl.
After the cells were treated with the compound for 4 days, the cells were washed with PBS and fixed with 200 μl/well ice-cold […] for one hour at 0-5° C.
Remove TCA and rinse wells 5 times with deionized water. Dry plates upside down with paper towels. Stain cells with 0.4% SRB at 100 μl/well for 10 minutes.
Pour off SRB and rinse plate 5 times with 1% acetic acid. Dry plate completely.
Solubilize the dye with 10 mM Tris-base at 100 μl/well for 10 minutes on a shaker.
Read the plate at dual wavelengths at 570 nm and 630 nm on Dynatech Elisa plate reader.

in vivo = conditions: mouse, in vivo
[2] = Plasma concentration after single IP dose; assay type: in vivo; conditions: mouse
Description: **Single dose (50 mg/kg), IP, in BALB/c, nu/nu, female mice.

in vitro = in vitro ADME, human
Description: . […] . Thus, biologically relevant concentrations of the drug penetrated the skin and reached the target tissue (epidermis) within 24 hours of application.
. The area of the cadaver skin used was 1.77 cm^2. The calculated volume using this assumption is 17.7 μL. Molar concentration was calculated from the microgram recovery in the epidermis.

IGF-1R = biological target: T1, IGF-1R (Homo sapiens, UniProt P08069); assay: IGF-1-stimulated receptor phosphorylation ELISA, 3T3-IGF1R; assay type: cell-based
T1 construct: expressed in transfected cells; host or cells: NIH3T3 mouse fibroblasts, retroviral vector (3T3-IGF1R)
Excerpt: (§1) Cells and Cell Culture. All tumor cell lines were obtained from the American Type Culture Collection (Rockville, Md.), unless otherwise specified. NIH3T3 mouse fibroblasts overexpressing the EGF receptor, IGF-1 receptor, insulin receptor, PDGF-b receptor, or a chimera of the EGF receptor extracellular domain fused to the Her-2 cytoplasmic domain were engineered using retroviral vectors. These cells will be referred to as 3T3-EGFR, 3T3-IGF1R, 3T3-IR, 3T3-PDGF-bR, and 3T3-EGFR/Her-2, respectively. All cell culture media and supplements were purchased from Gibco Life Technologies (Grand Island, N.Y.) unless otherwise specified. […] Cell lines were maintained under standard conditions in culture media recommended by the ATCC, unless otherwise specified. 3T3-EGFR, 3T3-PDGF-bR, and 3T3-EGFR/Her-2 cells were maintained in DMEM containing 10% calf serum (CS) and 2 mM GLN. 3T3-IGF1R and 3T3-IR cells were maintained in DMEM containing 10% FBS and 2 mM GLN. Keratinocytes were obtained from small biopsy specimens of split-thicknessskin from patients with psoriasis and from healthy control donors.
(§2) In vitro functional studies. […] Cell lines examined in receptor phosphorylation ELISA were 3T3-EGFR, 3T3-EGFR/Her-2, 3T3-PDGF-bR, 3T3-IGF1R, and 3T3-IR. For analysis of DNA replication (measured as incorporation of BrdU) and cell cycle progression, 3T3-EGFR and 3T3-PDGF-bR cell lines were used. Cell growth studies were carried out on A431 (EGF-R+), BT474 (Her-2+), and C6 (PDGF-bR+) cell lines.
Receptor phosphorylation was measured by ELISA. EGF-R/Her-2 denotes a chimeric receptor consisting of the extracellular (ligand-binding) domain of EGFR, and the transmembrane and cytoplasmic domains of Her-2.

IR = biological target: T2, IR (Homo sapiens, UniProt P06213); assay: Insulin-stimulated receptor phosphorylation ELISA, 3T3-IR; assay type: cell-based
T2 construct: expressed in transfected cells; host or cells: NIH3T3 mouse fibroblasts, retroviral vector (3T3-IR)
Excerpt: as §1
In vitro functional studies. […] For analysis of DNA replication (measured as incorporation of BrdU) and cell cycle progression, 3T3-EGFR and 3T3-PDGF-bR cell lines were used. […]
Receptor phosphorylation was measured by ELISA. […]

3T3-EGFR cells [3] = assay: EGF-driven DNA replication (BrdU incorporation); assay type: cell-based; conditions: Mus musculus, 20 hours
Description: as §2

3T3-EGFR cells [4] = assay: EGF-driven cell cycle progression (propidium iodide, FACS); assay type: cell-based, mouse; conditions: 20 hours
Description: as §2

A431 = assay: Cell growth (SRB), A431; assay type: cell-based
Description: as §2
(§3) After 4 days, cell density was measured by SRB staining. IC50 values were determined by regression analysis. For these experiments, cell lines whose growth is dependent on naturally-expressed RTK were examined.

BT474 = assay: Cell growth (SRB), BT474; assay type: cell-based; conditions: Homo sapiens, BT-474, 96 h; RTK Her-2, 4 day incubation
Description: (§4) In vitro functional studies.
as §3

C6 = assay: Cell growth (SRB), C6; assay type: cell-based
Description: as §4, §3

[5] = tested on: psoriatic human keratinocytes; assay: Growth of psoriatic human keratinocytes; assay type: cell-based
Excerpt: as §1, §2

[6] = Excipient screening (visual solubility after 24 hrs)

T1 sequence (P08069 741-1367 limits assumed, species assumed): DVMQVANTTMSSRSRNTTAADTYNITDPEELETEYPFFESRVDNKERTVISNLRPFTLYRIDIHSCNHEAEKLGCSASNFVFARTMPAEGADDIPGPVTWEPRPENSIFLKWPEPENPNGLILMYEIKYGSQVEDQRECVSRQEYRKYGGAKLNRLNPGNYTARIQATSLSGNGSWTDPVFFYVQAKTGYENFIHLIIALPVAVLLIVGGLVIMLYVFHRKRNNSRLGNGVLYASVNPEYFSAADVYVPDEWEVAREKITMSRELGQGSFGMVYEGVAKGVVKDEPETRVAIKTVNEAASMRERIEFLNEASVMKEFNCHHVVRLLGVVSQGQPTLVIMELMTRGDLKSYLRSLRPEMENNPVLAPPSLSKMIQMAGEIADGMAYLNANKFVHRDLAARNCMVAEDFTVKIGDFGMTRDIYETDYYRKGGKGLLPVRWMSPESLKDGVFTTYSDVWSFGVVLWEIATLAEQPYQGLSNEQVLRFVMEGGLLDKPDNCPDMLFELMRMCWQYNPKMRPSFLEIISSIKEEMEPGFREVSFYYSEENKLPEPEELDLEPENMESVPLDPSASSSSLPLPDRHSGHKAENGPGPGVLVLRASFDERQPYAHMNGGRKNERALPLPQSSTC
T1 sequence (P08069 31-736 partner limits assumed, species assumed): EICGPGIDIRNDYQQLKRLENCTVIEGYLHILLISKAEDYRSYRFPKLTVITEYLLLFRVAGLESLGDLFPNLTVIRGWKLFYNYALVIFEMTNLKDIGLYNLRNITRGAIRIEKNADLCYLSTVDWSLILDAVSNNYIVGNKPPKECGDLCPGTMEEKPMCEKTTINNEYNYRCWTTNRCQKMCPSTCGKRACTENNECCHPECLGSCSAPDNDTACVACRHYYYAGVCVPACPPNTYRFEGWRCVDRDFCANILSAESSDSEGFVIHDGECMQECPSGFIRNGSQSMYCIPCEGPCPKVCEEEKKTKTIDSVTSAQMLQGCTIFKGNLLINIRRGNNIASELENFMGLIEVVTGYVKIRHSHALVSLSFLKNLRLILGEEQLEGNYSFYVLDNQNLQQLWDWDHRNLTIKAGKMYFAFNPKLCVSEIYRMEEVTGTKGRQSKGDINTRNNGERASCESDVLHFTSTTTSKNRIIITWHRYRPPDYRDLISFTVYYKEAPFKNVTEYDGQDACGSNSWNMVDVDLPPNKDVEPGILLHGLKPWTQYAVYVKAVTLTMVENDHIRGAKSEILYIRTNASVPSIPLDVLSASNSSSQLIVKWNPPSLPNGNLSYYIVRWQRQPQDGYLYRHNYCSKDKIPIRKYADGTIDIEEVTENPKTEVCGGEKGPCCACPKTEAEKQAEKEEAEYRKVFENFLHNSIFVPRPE
T2 sequence (P06213 763-1382 limits assumed): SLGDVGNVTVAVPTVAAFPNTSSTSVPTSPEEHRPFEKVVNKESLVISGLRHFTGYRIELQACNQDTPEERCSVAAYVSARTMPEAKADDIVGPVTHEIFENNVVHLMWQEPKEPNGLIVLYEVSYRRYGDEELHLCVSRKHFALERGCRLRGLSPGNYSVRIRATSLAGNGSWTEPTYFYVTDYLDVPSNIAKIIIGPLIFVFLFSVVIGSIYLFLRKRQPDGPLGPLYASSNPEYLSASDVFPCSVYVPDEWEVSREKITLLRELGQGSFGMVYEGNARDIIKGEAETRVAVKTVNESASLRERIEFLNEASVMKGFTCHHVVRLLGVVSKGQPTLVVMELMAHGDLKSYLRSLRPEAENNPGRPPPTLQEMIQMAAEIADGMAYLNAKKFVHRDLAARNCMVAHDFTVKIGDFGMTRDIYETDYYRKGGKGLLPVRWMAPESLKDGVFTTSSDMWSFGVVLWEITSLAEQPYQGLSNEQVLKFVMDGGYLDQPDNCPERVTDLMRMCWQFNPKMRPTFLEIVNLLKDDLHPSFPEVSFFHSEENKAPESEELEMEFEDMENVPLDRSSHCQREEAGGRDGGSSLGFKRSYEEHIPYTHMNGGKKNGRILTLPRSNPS
T2 sequence (P06213 28-758 partner limits assumed): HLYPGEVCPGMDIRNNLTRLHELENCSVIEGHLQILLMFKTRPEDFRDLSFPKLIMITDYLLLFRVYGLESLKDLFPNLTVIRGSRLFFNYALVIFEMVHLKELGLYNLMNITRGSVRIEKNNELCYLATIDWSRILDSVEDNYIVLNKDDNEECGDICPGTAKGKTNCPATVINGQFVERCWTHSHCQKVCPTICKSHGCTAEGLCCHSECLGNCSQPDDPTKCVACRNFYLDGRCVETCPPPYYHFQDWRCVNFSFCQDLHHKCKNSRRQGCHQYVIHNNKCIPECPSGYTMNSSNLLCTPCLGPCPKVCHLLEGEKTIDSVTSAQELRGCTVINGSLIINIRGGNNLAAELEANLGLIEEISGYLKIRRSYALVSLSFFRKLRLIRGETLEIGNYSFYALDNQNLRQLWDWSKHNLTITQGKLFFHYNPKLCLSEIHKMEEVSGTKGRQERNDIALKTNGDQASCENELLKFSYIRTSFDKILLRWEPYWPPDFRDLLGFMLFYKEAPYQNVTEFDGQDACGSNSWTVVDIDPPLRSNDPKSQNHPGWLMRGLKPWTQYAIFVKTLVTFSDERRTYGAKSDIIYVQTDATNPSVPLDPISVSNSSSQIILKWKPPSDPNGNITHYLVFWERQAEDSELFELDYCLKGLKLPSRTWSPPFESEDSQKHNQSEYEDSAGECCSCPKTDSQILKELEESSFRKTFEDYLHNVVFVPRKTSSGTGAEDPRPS

Structure (SMILES): COc1cc2ncnc(Nc3cccc(Br)c3)c2cc1OC [A1, 4-(3-Bromophenylamino)-6,7-dimethoxyquinazoline]
- IC50 [1]: 75 nM
- toxicity (in words) (in vivo): low toxicity
- plasma half-life (in words) ([2]; in vivo): short plasma half-life
- concentration at 5 min ([2]; plasma, single dose 50 mg/kg IP, BALB/c nu/nu female mice, 5 min): 17900 ± 4300 ng/mL
- concentration at […] ([2]; plasma, single dose 50 mg/kg IP, BALB/c nu/nu female mice, 15 min): 6300 ± 3700 ng/mL
- concentration at 1 h ([2]; plasma, single dose 50 mg/kg IP, BALB/c nu/nu female mice, 60 min): 2000 ± 900 ng/mL
- skin penetration (in words) (in vitro): penetrated human cadaver skin, reaching biologically effective concentrations in the epidermis
- concentration at 24 h (in vitro; human, topical or ocular, concentration in the epidermis after 24 hours): 141 to 355 µM
- activity against insulin-like growth factor-1 receptor (in words) (IGF-1R): little or no activity
- inhibition of receptor phosphorylation, IGF-1R (IGF-1R; concentrations up to 100 μM): not inhibited
- IC50 (IGF-1R; ligand IGF-1, 2 hr pretreatment): > 100000 nM
- inhibition of receptor phosphorylation, IR (IR; concentrations up to 100 μM): not inhibited
- IC50 (IR; ligand Insulin, 2 hr pretreatment): > 100000 nM
- IC50 (3T3-EGFR cells [3]): 30 nM
- IC50 (3T3-EGFR cells [4]): 34 nM
- growth of cell lines driven by the EGF-R/Her family of RTK (in words) (A431): preferentially inhibited
- IC50 (A431; Homo sapiens, A-431, 96 h): 1600 nM
- IC50 (BT474): 900 nM
- inhibition of PDGF-bR-dependent cell growth (in words) (C6): did not inhibit
- IC50 (C6; Rattus norvegicus, C6, 96 h, RTK PDGF-bR, 4 day incubation): > 100000 nM
- inhibition of psoriatic skin cell / keratinocyte proliferation in vitro (in words) [5]: capable of inhibiting
- IC99 ([5]; Homo sapiens, Keratinocyte, 120 h, read-out: IC99, inhibition of psoriatic keratinocyte proliferation): ~14 µM
- IC50 ([5]; Homo sapiens, Keratinocyte, read-out: IC50, growth of psoriatic keratinocytes): < 1000 nM
- Solubility After 24 Hrs. ([6]; 1.0 N HCl): Insoluble/Yellow
- Solubility After 24 Hrs. ([6]; Benzyl Alcohol): Soluble
- Solubility After 24 Hrs. ([6]; Conc. NaOH): Insoluble
- Solubility After 24 Hrs. ([6]; Distilled H2O): Insoluble
- Solubility After 24 Hrs. ([6]; EtOH/Poly-80 50:50, [Drug] 10 mg/mL): Slightly Soluble
- Solubility After 24 Hrs. ([6]; Ethanol): Partially Soluble
- Solubility After 24 Hrs. ([6]; Isopropyl Myristate): Insoluble/Cloudy
- Solubility After 24 Hrs. ([6]; Oleic Acid): Insoluble/Yellow/Cloudy
- Solubility After 24 Hrs. ([6]; PEG-300): Soluble
- Solubility After 24 Hrs. ([6]; Polysorbate-80, [Drug] 10 mg/mL): Slightly Soluble
- Solubility After 24 Hrs. ([6]; Propylene Carbonate): Soluble/80C/10 min.
- Solubility After 24 Hrs. ([6]; Propylene Glycol): Slightly Soluble/Clear/
- Solubility After 24 Hrs. ([6]; Triacetin): Partially Soluble
